This note sets out measurements from patent US20190030053A1, “COMPOSITION FOR INCREASING EXPRESSION OF PGC-1alpha” (BENEBIOSIS CO., LTD., priority 2016, published 2019).

Assay [1] concerns Alzheimer's disease model mice (3×Tg). Description: Cognitive ability test (Morris water maze) in Alzheimer's disease models. In kind it is in vivo, mouse. Particulars: 3×Tg mice, oral 0.1 mg/kg/day; test for 7 days. An excerpt: In order to investigate the changes in gene expression and cognitive ability by the treatment with SL (3′-SL & 6′-SL) compositions in Alzheimer's brain disease models, 6-week-old mice were purchased from Central Lab Animal (Korea). Water was freely accessible, and a commercially available pellet feed (Dooyeul Biotech, Korea) was given for two weeks. At 8 weeks of age, the mice were divided into three groups (composed of eight mice for each group): Eight 8-week-old male c57/BL6 mice (normal mice; initial body weight, average 35.6±3.3 g) treated with a normal diet were used for a control group. […]

For assay [2], the system named is telomerase. Description: Telomerase activity (TRAP) in vivo, aorta of aging stimulation models. Particulars: oral 0.1 mg/kg/day. Details: species or system mouse. How it is done: In order to investigate the gene expression changes by body parts by the treatment with SL (3′-SL & 6′-SL) compositions in aging stimulation models, 4-week-old male aging stimulation model mice (SAM P1/Sku Slc) were purchased from Central Lab Animal (Korea). Water was freely accessible, and a commercially available pellet feed (Dooyeul Biotech, Korea) was given for one week. […]
In FIGS. 18a and 18b, the telomerase activity was measured using TRAP protocol (Wright et al., 1995). […] The fluorescence of the thus obtained TRAP product was measured using a fluorescent plate reader to quantify telomerase activity. Relative telomerase activity was normalized by the ratio of native […] to sulforhodamine (internal control standard), expressed as a percentage. […]

Assay [3] concerns mouse aortic smooth muscle cells (MASMs). Description: Mitochondrial superoxide production (MitoSOX Red) in MASMs of arteriosclerosis model mice. In kind it is cell-based. Particulars: MASMs from PGC-1α+/+ApoE−/− mice; SL added to culture liquid. Here is the method: For the measurement of mitochondrial superoxide production, mitochondrial ROS was measured using MitoSOX Red (mitochondrial superoxide fluorescent marker). MASMs were extracted, and incubated with MitoSOX (4 μM) in the dark room at 37° C. for 20 minutes. The MitoSOX fluorescence was quantified by the cell fluorescence intensity read using a fluorescent plate reader (480 nm excitation/580 nm emission) (FIG. 19b).
In FIGS. 19a and 19b, MASMs were extracted from the model mouse (PGC-1α^+/+ApoE^−/−) control group, and the SL (3′-SL & 6′-SL) compositions were added to the culture liquid to conduct comparison.
FIGS. 19a and 19b show the measurement results of intercellular H2O2 (ROS values) (FIG. 19a) and the measurement results of mitochondrial superoxide production (FIG. 19b). MASMs were extracted from the model mice (PGC-1α^+/+ApoE^−/−), and the SL (3′-SL & 6′-SL) compositions were added to the culture liquid to conduct comparison.

In assay [4] the test system is skin test model (HRM2) mice. As to the kind of experiment: Skin tests (UV irradiation, skin sensitivity, skin irritation, subcutaneous absorption) in skin test model mice. It is filed as in vivo, mouse. Particulars: oral 0.1 mg/kg/day, 10 weeks. The source says: In order to investigate the gene expression chages by body parts by the treatment with the SL (3′-SL & 6′-SL) compositions in skin test models, 6-week-old male skin test model (HRM2) mice (hairless appearance containing melanin) were randomly grouped into three different dietary treatment groups (8 animals per group, a total of 24 animals) below, and the diets (AIN-76A, Dyets, USA) were maintained for 10 weeks. The UV irradiation (black spot, wrinkle test), skin sensitivity test, skin irritation test, subcutaneous absorption test, or the like were conducted using a portable color-difference meter (CR-10, Minolta, Japan): • Control group: Group fed with a normal diet (8 animals) • 3′-SL administration group: Models treated with 3′-sialyllactose (3′-SL, Sigma) (oral administration of 0.1 mg per kg of mouse weight per day) in addition to the normal diet group (8 animals) • 6′-SL administration group: Models treated with 6′-sialyllactose (6′-SL, Sigma) (oral administration of 0.1 mg per kg of mouse weight per day) in addition to the normal diet group (8 animals)

`CC(=O)N[C@H]1[C@H]([C@H](O)[C@H](O)CO)O[C@@](O[C@H]2[C@@H](O)[C@@H](CO)O[C@@H](O[C@H]3[C@H](O)[C@@H](O)C(O)O[C@@H]3CO)[C@@H]2O)(C(=O)O)C[C@@H]1O` (stereo partly drawn) [3′-SL, α-NeuNAc-(2→3)-β-D-Gal-(1→4)-D-Glc]: the “escape time in the cognitive ability test (Morris water maze)” value in assay [1] was “relatively low compared with 6′-SL”. Moreover, in assay [2], the “telomerase activity in aorta sample (in vivo)” value is on record as “increased telomerase activity”. In assay [3], the mitochondrial superoxide production result was “inhibited the mitochondrial superoxide production”. In assay [4], the “skin state in UV irradiation (black spot, wrinkle test), skin sensitivity, skin irritation, subcutaneous absorption tests vs control” value is on record as “much improved skin”.

For `CC(=O)N[C@H]1[C@H]([C@H](O)[C@H](O)CO)O[C@@](OC[C@H]2O[C@@H](O[C@H]3[C@H](O)[C@@H](O)[C@H](O)O[C@@H]3CO)[C@H](O)[C@@H](O)[C@H]2O)(C(=O)O)C[C@@H]1O` [6′-SL, α-NeuNAc-(2→6)-β-D-Gal-(1→4)-D-Glc], the “escape time in the cognitive ability test (Morris water maze)” value in assay [1] is given as “definitely fast”. Moreover, the “telomerase activity in aorta sample (in vivo)” value in assay [2] is on record as “increased telomerase activity”. For the same compound, the mitochondrial superoxide production result in assay [3] is “inhibited the mitochondrial superoxide production”. For the same compound, the “skin state in UV irradiation (black spot, wrinkle test), skin sensitivity, skin irritation, subcutaneous absorption tests vs control” value in assay [4] is listed as “much improved skin”.
